PubChem BioAssay (NCI)
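GI50 is the concentration that inhibits growth by half. At the TGI there is no net growth.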

Assays:
Assay in all cases: NCI-60 cell line screen, 384-well format
UO-31 renal = tested on: UO-31 renal
MDA-MB-231 breast = tested on: MDA-MB-231 breast
T-47D breast = tested on: T-47D breast
SF-295 CNS = tested on: SF-295 CNS
K-562 leukemia = tested on: K-562 leukemia
OVCAR-8 ovarian = tested on: OVCAR-8 ovarian
CAKI-1 renal = tested on: CAKI-1 renal
BT-549 breast = tested on: BT-549 breast
NCI-H226 lung = tested on: NCI-H226 lung
HL-60(TB) leukemia = tested on: HL-60(TB) leukemia
HOP-92 NSCLC = tested on: HOP-92 NSCLC
HT29 colon = tested on: HT29 colon
NCI/ADR-RES ovarian = tested on: NCI/ADR-RES ovarian
ACHN renal = tested on: ACHN renal
U251 glioblastoma = tested on: U251 glioblastoma
UACC-62 melanoma = tested on: UACC-62 melanoma
SK-OV-3 ovarian = tested on: SK-OV-3 ovarian
SNB-19 CNS = tested on: SNB-19 CNS
MALME-3M melanoma = tested on: MALME-3M melanoma
SNB-75 CNS = tested on: SNB-75 CNS
MDA-MB-468 breast = tested on: MDA-MB-468 breast
IGROV1 ovarian = tested on: IGROV1 ovarian
PC-3 prostate = tested on: PC-3 prostate
NCI-H322M lung = tested on: NCI-H322M lung
A498 renal = tested on: A498 renal
HCC-2998 colon = tested on: HCC-2998 colon
HCT-15 colon = tested on: HCT-15 colon
OVCAR-4 ovarian = tested on: OVCAR-4 ovarian
SF-539 CNS = tested on: SF-539 CNS
DU-145 prostate = tested on: DU-145 prostate
SK-MEL-28 melanoma = tested on: SK-MEL-28 melanoma
HS 578T breast = tested on: HS 578T breast
SW-620 colon = tested on: SW-620 colon
786-0 renal = tested on: 786-0 renal
OVCAR-3 ovarian = tested on: OVCAR-3 ovarian
UACC-257 melanoma = tested on: UACC-257 melanoma
NCI-H23 lung = tested on: NCI-H23 lung
RXF 393 renal = tested on: RXF 393 renal
MDA-MB-435 melanoma = tested on: MDA-MB-435 melanoma
RPMI-8226 leukemia = tested on: RPMI-8226 leukemia
OVCAR-5 ovarian = tested on: OVCAR-5 ovarian
A549 NSCLC = tested on: A549 NSCLC
NCI-H522 lung = tested on: NCI-H522 lung
MOLT-4 leukemia = tested on: MOLT-4 leukemia
TK-10 renal = tested on: TK-10 renal
COLO 205 colon = tested on: COLO 205 colon
CCRF-CEM leukemia = tested on: CCRF-CEM leukemia
LOX IMVI melanoma = tested on: LOX IMVI melanoma
M14 melanoma = tested on: M14 melanoma
KM12 colon = tested on: KM12 colon
SK-MEL-5 melanoma = tested on: SK-MEL-5 melanoma
SF-268 CNS = tested on: SF-268 CNS
HOP-62 NSCLC = tested on: HOP-62 NSCLC
NCI-H460 NSCLC = tested on: NCI-H460 NSCLC
SR leukemia = tested on: SR leukemia
EKVX NSCLC = tested on: EKVX NSCLC
SN12C renal = tested on: SN12C renal

## COc1ccc(-c2ccc3c(N4CCOC[C@@H]4C)nc(N4CCOC[C@@H]4C)nc3n2)cc1CO
UO-31 renal
  GI50: 81.8 nM
  TGI: 19000 nM
MDA-MB-231 breast
  GI50: 21.9 nM
  TGI: 11100 nM
T-47D breast
  GI50: < 10 nM
  TGI: 23.6 nM
SF-295 CNS
  GI50: 12.2 nM
  TGI: 87.7 nM
K-562 leukemia
  GI50: 56.3 nM
  TGI: 13200 nM
OVCAR-8 ovarian
  GI50: 46.2 nM
  TGI: 11600 nM
CAKI-1 renal
  GI50: 31.6 nM
  TGI: 842 nM
BT-549 breast
  GI50: 18.2 nM
  TGI: 192 nM
NCI-H226 lung
  GI50: 17.9 nM
  TGI: 284 nM
HL-60(TB) leukemia
  GI50: 322 nM
  TGI: 12800 nM
HOP-92 NSCLC
  GI50: 19.1 nM
  TGI: 340 nM
HT29 colon
  GI50: 102 nM
  TGI: 14700 nM
NCI/ADR-RES ovarian
  GI50: 102 nM
  TGI: 26700 nM
ACHN renal
  GI50: 25.4 nM
  TGI: 11500 nM
U251 glioblastoma
  GI50: 87.2 nM
  TGI: 17400 nM
UACC-62 melanoma
  GI50: 18.9 nM
  TGI: 208 nM
SK-OV-3 ovarian
  GI50: 17.6 nM
  TGI: 365 nM
SNB-19 CNS
  GI50: 249 nM
  TGI: 18500 nM
MALME-3M melanoma
  GI50: < 10 nM
  TGI: 34.7 nM
SNB-75 CNS
  GI50: 14.3 nM
  TGI: 207 nM
MDA-MB-468 breast
  GI50: 15.2 nM
  TGI: 56.7 nM
IGROV1 ovarian
  GI50: 12.2 nM
  TGI: 56.9 nM
PC-3 prostate
  GI50: 16.1 nM
  TGI: 10200 nM
NCI-H322M lung
  GI50: 27.6 nM
  TGI: 11100 nM
A498 renal
  GI50: < 10 nM
  TGI: 51.9 nM
HCC-2998 colon
  GI50: 77 nM
  TGI: 14900 nM
HCT-15 colon
  GI50: 23.9 nM
  TGI: 11300 nM
OVCAR-4 ovarian
  GI50: 12.9 nM
  TGI: 95.3 nM
SF-539 CNS
  GI50: 32.2 nM
  TGI: 11000 nM
DU-145 prostate
  GI50: 40.6 nM
  TGI: 13300 nM
SK-MEL-28 melanoma
  GI50: 19.9 nM
  TGI: 436 nM
HS 578T breast
  GI50: 12.8 nM
  TGI: 56.3 nM
SW-620 colon
  GI50: 120 nM
  TGI: 13300 nM
786-0 renal
  GI50: 42.2 nM
  TGI: 12100 nM
OVCAR-3 ovarian
  GI50: 29.9 nM
  TGI: 11100 nM
UACC-257 melanoma
  GI50: 42.9 nM
  TGI: 396 nM
NCI-H23 lung
  GI50: 60 nM
  TGI: 14300 nM
RXF 393 renal
  GI50: 27.3 nM
  TGI: 12000 nM
MDA-MB-435 melanoma
  GI50: 42.4 nM
  TGI: 562 nM
RPMI-8226 leukemia
  GI50: < 10 nM
  TGI: 10 nM
OVCAR-5 ovarian
  GI50: 30.2 nM
  TGI: 1900 nM
A549 NSCLC
  GI50: 20.4 nM
  TGI: 6350 nM
NCI-H522 lung
  GI50: 22.9 nM
  TGI: 10000 nM
MOLT-4 leukemia
  GI50: 17.9 nM
  TGI: 322 nM
TK-10 renal
  GI50: 93.8 nM
  TGI: 749 nM
COLO 205 colon
  GI50: 24.4 nM
  TGI: 1350 nM
CCRF-CEM leukemia
  GI50: 14.9 nM
  TGI: 1820 nM
LOX IMVI melanoma
  GI50: 31.6 nM
  TGI: 294 nM
M14 melanoma
  GI50: 19 nM
  TGI: 10500 nM
KM12 colon
  GI50: 29.4 nM
  TGI: 11400 nM
SK-MEL-5 melanoma
  GI50: 10.5 nM
  TGI: 89.1 nM
SF-268 CNS
  GI50: 62.9 nM
  TGI: 12900 nM
HOP-62 NSCLC
  GI50: 29.2 nM
  TGI: 1880 nM
NCI-H460 NSCLC
  GI50: < 10 nM
  TGI: 11900 nM
SR leukemia
  GI50: 11.3 nM
  TGI: 43 nM
EKVX NSCLC
  GI50: 23.3 nM
  TGI: 583 nM
SN12C renal
  GI50: 19 nM
  TGI: 11100 nM
